Values of other authors, collected in patent US8735374B2, “Oral mucoadhesive dosage form” (Intelgenx Corp., priority 2009, dated 2014).
“And” between values parts separate entries of the source, which are not always exact repeats. Identical values can stand only once.

Details: oral administration; first pass hepatic metabolism, high lipid solubility

For `CCCCCc1cc(O)c2c(c1)OC(C)(C)[C@@H]1CCC(C)=C[C@@H]21` [THC, Δ^9-tetrahydrocannabinol], the “portion of an administered dose that reaches systemic circulation” value is given as 10 to 20% and 10-20%.
